Test results: US8796244B2, “Imidazopyridine derivatives as inhibitors of receptor tyrosine kinases” (Astex Therapeutics Ltd, priority 2008, dated 2014)
pIC50: −log10 of the molar value. Structures can show the parent of a compound that is named as a salt. Where two headings read alike, the source gives them in different places.

Key:
[1] = system: parental wild-type Ba/F3 cells; test: Ba/F3 (WT) cell proliferation assay (Alamar Blue); assay type: cell-based; settings: Mus musculus; for inhibition at 10 µM: BaF3, read-out: BaF3 WT prolif, % inhibition; for IC50: BaF3, 72 h, read-out: BaF3 WT prolif (μM); for pIC50: BaF3, 72 hours, Alamar Blue, read-out: BaF3 WT prolif
[2] = system: LP-1 cell line (FGF-1/Heparin induced pERK); test: Cell-based pERK ELISA, LP-1 cells; settings: Homo sapiens; for IC50: LP-1, read-out: LP-1 pERK ELISA (μM)
[3] = LP-1, read-out: LP-1 pERK ELISA, % inhibition

Structure (SMILES) | inhibition at 10 µM [1] | IC50 [2] | IC50 [1] | other results
O=C1CN(c2ccc(-c3ccn4c(-c5cccc(NC(=O)NCC(F)(F)F)c5)cnc4c3)nn2)CCN1 [Example 95, 1-(3-{7-[6-(3-Oxo-piperazin-1-yl)-pyridazin-3-yl]-imidazo[1,2-a]pyridin-3-yl}-phenyl)-3-(2,2,2-trifluoro-ethyl)-urea bis-hydrochloride] | 0% | 3.4 µM | – | –
O=C(NCC(F)(F)F)Nc1cccc(-c2cnc3cc(-c4nnc(CCN5CCCCC5)s4)ccn23)c1 [Example 22, 1-(3-{7-[5-(2-Piperidin-1-ylethyl)-[1,3,4]thiadiazol-2-yl]imidazo[1,2-a]pyridin-3-yl}phenyl)-3-(2,2,2-trifluoroethyl)urea hydrochloride] | – | 0.0044 µM | 1.1 µM | –
NC(=O)Nc1cccc(-c2cnc3cc(-c4ncccn4)ccn23)c1 [Compound 337] | 23% | 1.5 µM | – | –
O=C(NCC(F)(F)F)Nc1cccc(-c2cnc3cc(-c4nccc(C(F)(F)F)n4)ccn23)c1 [Example 46, 1-(2,2,2-Trifluoro-ethyl)-3-{3-[7-(4-trifluoromethyl-pyrimidin-2-yl)-imidazo[1,2-a]pyridin-3-yl]-phenyl}-urea hydrochloride] | 27% | 0.18 µM | – | –
CNc1ccc(-c2ccn3c(-c4cccc(NC(=O)NCC(F)(F)F)c4)cnc3c2)nn1 [Example 132, 1-{3-[7-(6-Methylamino-pyridazin-3-yl)-imidazo[1,2-a]pyridin-3-yl]-phenyl}-3-(2,2,2-trifluoro-ethyl)-urea] | 22.9% | 0.172 µM | – | –
O=C(NCC(F)(F)F)Nc1cccc(-c2cnc3cc(C#CCCO)ccn23)c1 [Example 19, 1-{3-[7-(4-Hydroxybut-1-ynyl)imidazo[1,2-a]pyridin-3-yl]phenyl}-3-(2,2,2-trifluoroethyl)urea] | – | 0.13 µM | – | pIC50 [1]: 6.26
O=C(Nc1cccc(-c2cnc3cc(-c4ccc(F)cc4)ccn23)c1)NC1CC1 [Example 28, 1-Cyclopropyl-3-{3-[7-(4-fluorophenyl)imidazo[1,2-a]pyridin-3-yl]phenyl}urea] | 35% | 0.17 µM | – | –
O=C(NCC(F)(F)F)Nc1cccc(-c2cnc3cc(-c4cncnc4)ccn23)c1 [Example 42, 1-[3-(7-Pyrimidin-5-yl-imidazo[1,2-a]pyridin-3-yl)-phenyl]-3-(2,2,2-trifluoro-ethyl)-urea hydrochloride] | – | 0.27 µM | 1.1 µM | –
O=C(NCC(F)(F)F)Nc1cncc(-c2cnc3cc(-c4cnn(C5CCNCC5)c4)ccn23)c1 [Example 152, 1-{5-[7-(1-Piperidin-4-yl-1H-pyrazol-4-yl)-imidazo[1,2-a]pyridin-3-yl]-pyridin-3-yl}-3-(2,2,2-trifluoro-ethyl)-urea] | 10% | 3.3 µM | – | –
O=C(NCC(F)(F)F)Nc1cccc(-c2cnc3cc(-c4ccc(N5CCCCC5)nc4)ccn23)c1 [Example 49, 1-{3-[7-(3,4,5,6-Tetrahydro-2H-[1,2′]bipyridinyl-5′-yl)-imidazo[1,2-a]pyridin-3-yl]-phenyl}-3-(2,2,2-trifluoro-ethyl)-urea hydrochloride] | – | 0.017 µM | 0.29 µM | –
O=C(NCC(F)(F)F)Nc1cccc(-c2cnc3cc(-c4cnn(C5CCOC5)c4)ccn23)c1 (centres unmarked) [Example 47, 1-(3-{7-[1-(Tetrahydro-furan-3-yl)-1H-pyrazol-4-yl]-imidazo[1,2-a]pyridin-3-yl}-phenyl)-3-(2,2,2-trifluoro-ethyl)-urea hydrochloride] | – | 0.0098 µM | 0.68 µM | –
Cc1cnc(N)nc1-c1ccn2c(-c3cccc(NC(=O)NCC(F)(F)F)c3)cnc2c1 [Example 176] | 59% | 0.33 µM | – | –
Cn1cncc1C#Cc1ccn2c(-c3cc(NC(=O)NCC(F)(F)F)ccc3F)cnc2c1 [Compound 327] | 30% | 0.31 µM | – | –
O=C(NCC(F)(F)F)Nc1cccc(-c2cnc3cc(-c4ccc(N5CCCCC5)nn4)ccn23)c1 [Example 7, 1-{3-[7-(6-Piperidin-1-yl-pyridazin-3-yl)-imidazo[1,2-a]pyridin-3-yl]phenyl}-3-(2,2,2-trifluoroethyl)urea] | – | 0.0063 µM | – | pIC50 [1]: 6.07
Cc1cccc(-c2ccn3c(-c4cccc(NC(=O)NCC(F)(F)F)c4)cnc3c2)n1 [Example 98, 1-{3-[7-(6-Methyl-pyridin-2-yl)-imidazo[1,2-a]pyridin-3-yl]-phenyl}-3-(2,2,2-trifluoro-ethyl)-urea bis-hydrochloride] | – | 0.02 µM | 0.7 µM | –
O=C(NCC(F)(F)F)Nc1cccc(-c2cnc3cc(-c4ccccn4)ccn23)c1 [Example 3, 1-[3-(7-Pyridin-2-ylimidazo[1,2-a]pyridinyl)phenyl]-3-(2,2,2-trifluoroethyl)urea] | – | 0.0088 µM | – | pIC50 [1]: 6.80
NC(=O)Nc1cccc(-c2cnc3cc(-c4ccc(F)cc4)ccn23)c1 [Example 154, {3-[7-(4-Fluoro-phenyl)-imidazo[1,2-a]pyridin-3-yl]-phenyl}-urea] | – | 0.086 µM | – | pIC50 [1]: 5.25

Structure (SMILES) | inhibition at 10 µM [1] | IC50 [2] | IC50 [1] | other results
CCOc1cccc(-c2ccn3c(-c4cccc(NC(=O)NCC(F)(F)F)c4)cnc3c2)n1 [Example 99, 1-{3-[7-(6-Ethoxy-pyridin-2-yl)-imidazo[1,2-a]pyridin-3-yl]-phenyl}-3-(2,2,2-trifluoro-ethyl)-urea bis-hydrochloride] | – | 0.063 µM | 0.32 µM | –
Cc1ccc(-c2ccn3c(-c4cccc(NC(=O)NCC(F)(F)F)c4)cnc3c2)nc1 [Example 91, 1-{3-[7-(5-Methyl-pyridin-2-yl)-imidazo[1,2-a]pyridin-3-yl]-phenyl}-3-(2,2,2-trifluoro-ethyl)-urea formate] | – | 0.0079 µM | 0.1 µM | –
Cn1cc(C#Cc2ccn3c(-c4cccc(NC(=O)NCC(F)(F)F)c4)cnc3c2)cn1 [Example 56, 1-{3-[7-(1-Methyl-1H-pyrazol-4-ylethynyl)-imidazo[1,2-a]pyridin-3-yl]-phenyl}-3-(2,2,2-trifluoro-ethyl)-urea formate] | – | 0.021 µM | 4.6 µM | –
Cc1cnc(-c2ccn3c(-c4cccc(NC(=O)NCC(F)(F)F)c4)cnc3c2)cn1 [Example 93, 1-{3-[7-(5-Methyl-pyrazin-2-yl)-imidazo[1,2-a]pyridin-3-yl]-phenyl}-3-(2,2,2-trifluoro-ethyl)-urea] | – | 0.065 µM | – | pIC50 [1]: 7.37
COCCNc1ccc(-c2ccn3c(-c4cccc(NC(=O)NCC(F)(F)F)c4)cnc3c2)nn1 [Example 80, 1-(3-{7-[6-(2-Methoxy-ethylamino)-pyridazin-3-yl]-imidazo[1,2-a]pyridin-3-yl}-phenyl)-3-(2,2,2-trifluoro-ethyl)-urea hydrochloride] | 0% | 0.039 µM | – | –
Nc1nc(-c2ccn3c(-c4cccc(NC(=O)NC5CC5)c4)cnc3c2)ncc1F [Example 166] | 0% | 0.29 µM | – | –
CC(C)(C(=O)O)n1cc(-c2ccn3c(-c4cccc(NC(=O)NCC(F)(F)F)c4)cnc3c2)cn1 [Example 5, 2-Methyl-2-[4-(3-{3-[3-(2,2,2-trifluoroethyl)ureido]phenyl}imidazo [1,2-a]pyridin-7-yl)pyrazol-1-yl]propionic acid] | 0% | – | – | inhibition at 1 µM [2, 3]: 45%
Cc1nccc(-c2ccn3c(-c4cccc(NC(=O)NCC(F)(F)F)c4)cnc3c2)n1 [Example 61, 1-{3-[7-(2-Methyl-pyrimidin-4-yl)-imidazo[1,2-a]pyridin-3-yl]-phenyl}-3-(2,2,2-trifluoro-ethyl)-urea hydrochloride] | 15% | 0.064 µM | – | –
CN1CCC(O)(C#Cc2ccn3c(-c4cccc(NC(=O)NCC(F)(F)F)c4)cnc3c2)CC1 [Example 65, 1-{3-[7-(4-Hydroxy-1-methyl-piperidin-4-ylethynyl)-imidazo[1,2-a]pyridin-3-yl]-phenyl}-3-(2,2,2-trifluoro-ethyl)-urea formate] | 8.3% | 1.3 µM | – | –
Cc1cnc(-c2ccn3c(-c4cccc(NC(=O)NCC(F)(F)F)c4)cnc3c2)nc1 [Example 58, 1-{3-[7-(5-Methyl-pyrimidin-2-yl)-imidazo[1,2-a]pyridin-3-yl]-phenyl}-3-(2,2,2-trifluoro-ethyl)-urea hydrochloride] | – | 0.077 µM | 0.7 µM | –
CN1CCC(n2cc(-c3ccn4c(-c5cccc(NC(=O)NCC(F)(F)F)c5)cnc4c3)cn2)CC1 [Example 6, 1-(3-{7-[1-(1-Methyl-piperidin-4-yl)-1H-pyrazol-4-yl]imidazo[1,2-a]pyridin-3-yl}phenyl)-3-(2,2,2-trifluoroethyl)urea] | – | 0.0092 µM | – | pIC50 [1]: 6.06
Cc1cnc(-c2ccn3c(-c4cccc(NC(=O)NCC(F)(F)F)c4)cnc3c2)nc1N [Example 175] | – | 0.077 µM | – | pIC50 [1]: 5.00
NC(=O)Nc1cccc(-c2cnc3cc(-c4ncc(F)c(N)n4)ccn23)c1 [Example 167] | 0% | – | – | inhibition at 10 µM [2, 3]: 60%
COCCc1nnc(-c2ccn3c(-c4cccc(NC(=O)NCC(F)(F)F)c4)cnc3c2)s1 [Compound 319] | – | 0.012 µM | – | pIC50 [1]: 6.82
COc1cncc(-c2ccn3c(-c4cccc(NC(=O)NCC(F)(F)F)c4)cnc3c2)n1 [Example 90, 1-{3-[7-(6-Methoxy-pyrazin-2-yl)-imidazo[1,2-a]pyridin-3-yl]-phenyl}-3-(2,2,2-trifluoro-ethyl)-urea formate] | – | 0.092 µM | 0.76 µM | –
O=C(NCC(F)(F)F)Nc1cccc(-c2cnc3cc(-c4cnc(N5CC(F)(F)C5)nc4)ccn23)c1 [Example 87, 1-(3-{7-[2-(3,3-Difluoro-azetidin-1-yl)-pyrimidin-5-yl]-imidazo[1,2-a]pyridin-3-yl}-phenyl)-3-(2,2,2-trifluoro-ethyl)-urea bis-trifluoroacetate] | – | 0.072 µM | 0.41 µM | –
Nc1ccc(-c2ccn3c(-c4cccc(NC(=O)NCC(F)(F)F)c4)cnc3c2)nc1 [Example 124, 1-{3-[7-(5-Amino-pyridin-2-yl)-imidazo[1,2-a]pyridin-3-yl]-phenyl}-3-(2,2,2-trifluoro-ethyl)-urea hydrochloride] | – | 0.024 µM | 0.27 µM | –
